Laboratory results reported in ChEMBL document CHEMBL5537197, “Discovery of Novel Coumarin-quinolinium Derivatives as Pan-KRAS Translation Inhibitors by Targeting 5'-UTR RNA G-Quadruplexes” (J Med Chem, 2024).
Calls of active or inactive are those of the source. The rule behind the calls is not given here.

What was measured:
MIA PaCa-2 [1] = test: Effect on total protein level in human MIA PaCa-2 cells at 2.5 uM incubated for upto 24 hrs by Western blot analysis; format: functional, cell-based
MIA PaCa-2 [2] = test: Inhibition of cell proliferation of human MIA PaCa-2 cells at 0.32 to 1.25 uM incubated for 10 days by colony formation assay relative to control; format: functional; conditions: dose 0.32-1.25 µM, time 10 day
PANC-1 [3] = test: Effect on KRAS mRNA level in human PANC-1 cells harboring KRAS G12D mutant at upto 5 uM incubated upto 48 hrs by RT-qPCR analysis; format: functional, cell-based
MIA PaCa-2 [4] = test: Induction of apoptosis in human MIA PaCa-2 cells assessed as increase in caspase-3 cleavage by Western blot analysis; format: functional, cell-based; conditions: dose 1.25-5 µM
MIA PaCa-2 [5] = test: Antitumor activity against human MIA PaCa-2 cells xenografted in BALB/C-nu/nu mouse model assessed as decrease of tumor volume administered intraperitoneally everyday for 18 days; format: functional, cell-based; conditions: dose 2.5-5 mg/kg, route ip, time 18.0 day
[6] = target: GTPase KRas (Homo sapiens) (UniProt P01116); test: Inhibition of KRAS in human MIA PaCa-2 cells assessed as decrease in MEK phosphorylation at 2.5 uM by Western blot analysis; format: cell-based; conditions: time <= 24.0 hrs, TDE = time-dependent effect
[7] = Cytotoxicity against human LX2 cells harboring wild-type KRAS assessed as cell growth inhibition incubated for 24 hrs by MTT assay; format: toxicity, cell-based, LX-2
MIA PaCa-2 [8] = test: Effect on KRAS mRNA level in human MIA PaCa-2 cells harboring KRAS G12C mutant at upto 5 uM incubated upto 48 hrs by RT-qPCR analysis; format: functional, cell-based
NCI-H358 [9] = test: Cytotoxicity against human NCI-H358 cells harboring KRAS G12C mutant assessed as cell growth inhibition incubated for 24 hrs by MTT assay; format: functional, cell-based; conditions: NCI-H358, 24 h
MIA PaCa-2 [10] = test: In vivo inhibition of KRAS in human MIA PaCa-2 cells xenografted in BALB/C-nu/nu mouse model at 2.5 to 5 mg/kg,ip everyday for 18 days by Western blot analysis; format: functional, organism-based; conditions: dose 2.5-5 mg/kg, time 18.0 day
MIA PaCa-2 [11] = test: Cytotoxicity against human MIA PaCa-2 cells harboring KRAS G12C mutant assessed as cell growth inhibition incubated for 24 hrs by MTT assay; format: functional, cell-based; conditions: MIA PaCa-2, 24 h
Quadruplex RNA [12] = test: Binding affinity to KRAS RNA G-Quadruplex (unknown origin) assessed as melting temperature at 25 uM at 25 to 95 degreeC by CD spectroscopy (reference value: 71.4 degreeC); format: nucleic-acid assay
MIA PaCa-2 [13] = test: Effect on total KRAS mRNA level in human MIA PaCa-2 cells xenografted in BALB/C-nu/nu mouse model at 2.5 to 5 mg/kg,ip everyday for 18 days by RT-qPCR analysis; format: functional, organism-based; conditions: dose 2.5-5 mg/kg, time 18.0 day
NCI-H358 [14] = test: Effect on KRAS mRNA level in human NCI-H358 cells harboring KRAS G12C mutant at upto 5 uM incubated upto 48 hrs by RT-qPCR analysis; format: functional, cell-based
U-87 MG = test: Cytotoxicity against human U-87 MG cells harboring wild-type KRAS assessed as cell growth inhibition incubated for 24 hrs by MTT assay; format: functional, cell-based, U-87MG ATCC
Quadruplex RNA [15] = test: Inhibition of KRAS RNA G-Quadruplex (unknown origin) translation transfected in HEK293T cells assessed as decrease in relative luciferase activity upto 5 uM incubated for 24 hrs by Dual-luciferase reporter assay; format: cell-based
[16] = test system: GTPase KRas (Homo sapiens), P01116 [G12C]; test: Inhibition of KRAS G12C mutant in human NCI-H358 cells at 2.5 uM by Western blot analysis; format: cell-based; conditions: time <= 48.0 hrs, TDE = time-dependent effect
Quadruplex DNA [17] = test: Disruption of DHX36/KRAS rG-Quadruplex (unknown origin) by ELISA; format: nucleic-acid assay; conditions: dose 20.0 µM
[18] = Toxicity in BALB/C-nu/nu mouse model xenografted with human MIA PaCa-2 cells assessed as signs of distress at 2.5 to 5 mg/kg,ip everyday for 18 days; format: organism-based; conditions: in vivo, 432 h, dose 2.5-5 mg/kg, time 18 day
HCT-116 = test: Cytotoxicity against human HCT-116 cells harboring KRAS G13D mutant assessed as cell growth inhibition incubated for 24 hrs by MTT assay; format: functional, cell-based; conditions: HCT-116, 24 h
[19] = Toxicity in BALB/C-nu/nu mouse model xenografted with human MIA PaCa-2 cells assessed as signs of discomfort at 2.5 to 5 mg/kg,ip everyday for 18 days; format: organism-based; conditions: in vivo, 432 h, dose 2.5-5 mg/kg, time 18 day
[20] = Toxicity in BALB/C-nu/nu mouse model xenografted with human MIA PaCa-2 cells assessed as body weight change at 2.5 to 5 mg/kg,ip everyday for 18 days; format: organism-based; conditions: in vivo, 432 h, dose 2.5-5 mg/kg, time 18 day
Quadruplex DNA [21] = test: Binding affinity to TERRA G-Quadruplex (unknown origin) assessed as melting temperature at 25 uM at 25 to 95 degreeC by CD spectroscopy (reference value: 84.2 degreeC); format: nucleic-acid assay
PANC-1 [22] = test: Cytotoxicity against human PANC-1 cells harboring KRAS G12D mutant assessed as cell growth inhibition incubated for 24 hrs by MTT assay; format: functional, cell-based; conditions: PANC-1, 24 h
[23] = target: GTPase KRas (Homo sapiens) (UniProt P01116); test: Inhibition of KRAS in human MIA PaCa-2 cells assessed as decrease in ERK phosphorylation incubated for 24 hrs by Western blot analysis; format: cell-based; conditions: dose 1.25-5 µM
[24] = test system: GTPase KRas (Homo sapiens), P01116 [G12C]; test: Inhibition of KRAS G12C mutant in human MIA PaCa-2 cells at 2.5 uM by Western blot analysis; format: cell-based; conditions: time <= 48.0 hrs, TDE = time-dependent effect
[25] = test system: GTPase KRas (Homo sapiens), P01116 [G12D]; test: Inhibition of KRAS G12D mutant in human PANC-1 cells at 2.5 uM by Western blot analysis; format: cell-based; conditions: time <= 48.0 hrs, TDE = time-dependent effect
[26] = Toxicity in BALB/C-nu/nu mouse model xenografted with human MIA PaCa-2 cells assessed as toxic sigs in viscera at 2.5 to 5 mg/kg,ip everyday for 18 days; format: organism-based; conditions: in vivo, 432 h, dose 2.5-5 mg/kg, time 18 day
MIA PaCa-2 [27] = test: Antitumor activity against human MIA PaCa-2 cells xenografted in BALB/C-nu/nu mouse model assessed as tumor growth inhibition at 5 mg/kg,ip everyday for 18 days relative to control; format: functional; conditions: MIA PaCa-2, 432 h, time 18 day, read-out: TGI
Quadruplex DNA [28] = test: Binding affinity to KRAS DNA G-Quadruplex (unknown origin) assessed as melting temperature at 25 uM at 25 to 95 degreeC by CD spectroscopy (reference value: 50.1 degreeC); format: nucleic-acid assay
MIA PaCa-2 [29] = test: In vivo inhibition of KRAS in human MIA PaCa-2 cells xenografted in BALB/C-nu/nu mouse model at 2.5 to 5 mg/kg,ip everyday for 18 days by IHC analysis; format: functional, organism-based; conditions: dose 2.5-5 mg/kg, time 18.0 day
[30] = Toxicity in BALB/C-nu/nu mouse model xenografted with human MIA PaCa-2 cells assessed as signs of pain at 2.5 to 5 mg/kg,ip everyday for 18 days; format: organism-based; conditions: in vivo, 432 h, dose 2.5-5 mg/kg, time 18 day
NCM460 = test: Cytotoxicity against human NCM460 cells harboring wild-type KRAS assessed as cell growth inhibition incubated for 24 hrs by MTT assay; format: functional, cell-based; conditions: NCM460, 24 h
[31] = target: GTPase KRas (Homo sapiens) (UniProt P01116); test: Inhibition of KRAS in human MIA PaCa-2 cells assessed as decrease in AKT phosphorylation incubated for 24 hrs by Western blot analysis; format: cell-based; conditions: dose 1.25-5 µM

Sequence of GTPase KRas (Homo sapiens) (P01116 whole entry, looked up): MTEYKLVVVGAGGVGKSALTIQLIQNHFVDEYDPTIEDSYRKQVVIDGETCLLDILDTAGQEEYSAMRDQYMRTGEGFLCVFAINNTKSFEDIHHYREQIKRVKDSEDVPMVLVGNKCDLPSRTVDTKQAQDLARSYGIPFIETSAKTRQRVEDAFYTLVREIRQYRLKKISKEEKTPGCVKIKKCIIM
Sequence of GTPase KRas (Homo sapiens), P01116 [G12C] (P01116 whole entry G12C): as the sequence (P01116 whole entry, looked up) above, with G12C counted along it
Sequence of GTPase KRas (Homo sapiens), P01116 [G12D] (P01116 whole entry G12D, looked up): as the sequence (P01116 whole entry, looked up) above, with G12D counted along it

inhibition [6]: Tde | Tm (Quadruplex RNA [12]): 51.3 °C | inhibition [16]: Tde | Activity (Quadruplex DNA [17]): Dose-Dependent Effect | Tm (Quadruplex DNA [21]): 81.2 °C | inhibition [23]: Dose-Dependent Effect | inhibition [24]: Tde | inhibition [25]: Tde | Tm (Quadruplex DNA [28]): 52 °C | inhibition [31]: Dose-Dependent Effect
Compound: CCN(CC)c1ccc2cc(/C=C/c3ccc4cc(F)c(NCCN5CCCC5)cc4[n+]3C)c(=O)oc2c1.[I-]
Activity (MIA PaCa-2 [1]): inactive | inhibition (INH) (MIA PaCa-2 [2]): 100% | Activity (PANC-1 [3]): inactive | Activity (MIA PaCa-2 [4]): Dose-Dependent Effect | Activity (MIA PaCa-2 [5]): Dose-Dependent Effect | IC50 at 24 h [7]: > 40 µM | Activity (MIA PaCa-2 [8]): inactive | IC50 (NCI-H358 [9]): 4.8 µM | Activity (MIA PaCa-2 [10]): Active | IC50 (MIA PaCa-2 [11]): 33 µM | Activity (MIA PaCa-2 [13]): inactive | Activity (NCI-H358 [14]): inactive | IC50 (U-87 MG): > 40 µM | inhibition (Quadruplex RNA [15]): Active | Activity [18]: Non-Toxic | IC50 (HCT-116): 4 µM | Activity [19]: Non-Toxic | Activity [20]: Non-Toxic | IC50 (PANC-1 [22]): 5.6 µM | Activity [26]: Non-Toxic | inhibition in vivo at 5 mg/kg (MIA PaCa-2 [27]): 70.3% | Activity (MIA PaCa-2 [29]): Active | Activity [30]: Non-Toxic | IC50 (NCM460): > 40 µM
